# Laboratory results taken from ChEMBL document CHEMBL1150535, “Acyclic NK-1 antagonists: 2-benzhydryl-2-aminoethyl ethers” (Bioorg Med Chem Lett, 1994).
# Columns and labels:
# Substance-P receptor = Substance-P receptor (Homo sapiens, UniProt P25103); assay: Binding affinity towards human Tachykinin receptor 1 expressed in CHO cells by the displacement of [125 I] substance P; type: cell-based
# [1] = molecular target: Voltage-gated L-type calcium channel (Homo sapiens, UniProt Q13936+Q13698+Q01668+O60840); assay: Antagonistic activity at L-type calcium channel by displacement of [3H]diltiazem and enhanced [3H]nitrendipine binding; type: protein assay
# Substance-P receptor, sequence (P25103 whole entry): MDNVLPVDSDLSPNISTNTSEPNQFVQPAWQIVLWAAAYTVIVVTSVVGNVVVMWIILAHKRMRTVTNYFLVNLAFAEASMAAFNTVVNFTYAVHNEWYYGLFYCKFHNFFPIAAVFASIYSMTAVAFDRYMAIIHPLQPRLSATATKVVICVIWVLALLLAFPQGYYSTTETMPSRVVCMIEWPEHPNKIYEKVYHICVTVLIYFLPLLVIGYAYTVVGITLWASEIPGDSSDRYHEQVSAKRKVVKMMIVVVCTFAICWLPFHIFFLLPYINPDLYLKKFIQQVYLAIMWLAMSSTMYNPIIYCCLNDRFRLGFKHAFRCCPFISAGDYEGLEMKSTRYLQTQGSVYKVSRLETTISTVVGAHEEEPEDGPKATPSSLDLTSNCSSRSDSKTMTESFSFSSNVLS
IC50 (Substance-P receptor),IC50 [1],Compound
75 nM,,NC(COCc1cccc(Cl)c1)C(c1ccccc1)c1ccccc1 (stereo not given)
0.85 nM,,NC(=O)CNC(COCc1cc(C(F)(F)F)cc(C(F)(F)F)c1)C(c1ccccc1)c1ccccc1 (stereo not given)
13.3 nM,,NC(COCc1cc(Br)cc(Br)c1)C(c1ccccc1)c1ccccc1 (stereo not given)
93 nM,,Cc1cc(C)cc(COCC(NCC2CC2)C(c2ccccc2)c2ccccc2)c1 (stereo not given)
82 nM,,Cc1cc(C)cc(COCC(NCc2ccccc2)C(c2ccccc2)c2ccccc2)c1 (stereo not given)
14 nM,,Cc1cc(C)cc(COC[C@@H](C(c2ccccc2)c2ccccc2)N(C)C)c1
2.2 nM,5500 nM,Cc1cc(C)cc(COCC(NCC(N)=O)C(c2ccccc2)c2ccccc2)c1 (stereo not given)
6.8 nM,,CNC(COCc1cc(C)cc(C)c1)C(c1ccccc1)c1ccccc1 (stereo not given)
77 nM,,NC(COCc1cccc(I)c1)C(c1ccccc1)c1ccccc1 (stereo not given)
150 nM,,Cc1ccc(C)c(COCC(N)C(c2ccccc2)c2ccccc2)c1 (stereo not given)
55 nM,,Cc1cc(C)cc(COCC(NC(C)C)C(c2ccccc2)c2ccccc2)c1 (stereo not given)
4.4 nM,,Cc1cc(C)cc(COCC(C(c2ccccc2)c2ccccc2)N(C)C)c1 (stereo not given)
0.53 nM,1670 nM,NC(=O)CN[C@H](COCc1cc(C(F)(F)F)cc(C(F)(F)F)c1)C(c1ccccc1)c1ccccc1
367 nM,,NC(COCc1ccccc1)C(c1ccccc1)c1ccccc1 (stereo not given)
9.7 nM,,Cc1cc(Br)cc(COCC(N)C(c2ccccc2)c2ccccc2)c1 (stereo not given)
5.5 nM,980 nM,Cc1cc(C)cc(COC[C@H](C(c2ccccc2)c2ccccc2)N(C)C)c1
11 nM,,Cc1cc(C)cc(COCC(NC=O)C(c2ccccc2)c2ccccc2)c1 (stereo not given)
17 nM,,Cc1cc(C)cc(COCC(O)C(c2ccccc2)c2ccccc2)c1 (stereo not given)
12.7 nM,,CCNC(COCc1cc(C)cc(C)c1)C(c1ccccc1)c1ccccc1 (stereo not given)
21 nM,,CC(=O)NC(COCc1cc(C)cc(C)c1)C(c1ccccc1)c1ccccc1 (stereo not given)
11.3 nM,,NC(COCc1cc(Cl)cc(Cl)c1)C(c1ccccc1)c1ccccc1 (stereo not given)

Compound,IC50 (Substance-P receptor),IC50 [1]
COc1ccccc1CN[C@H]1C2CCN(CC2)[C@H]1C(c1ccccc1)c1ccccc1 [CP-96345],,240 nM
